The source of these data is patent US5189050A, “Fermentation analogs of Virginiamycin M1 to treat panic and anxiety disorder” (Merck & Co., Inc., priority 1991, dated 1993).

One data set has as its system CCK-A receptors. As to conditions: cited from earlier work.
For a further data set, the system named is CCK-B receptors. The conditions noted are these: cited from earlier work.
In another data set the test system is stomach gastrin receptor. The conditions noted are these: cited from earlier work.
The conditions of data set [1]: crude rat brain synaptosomal fraction (title of cited paper); cited from earlier work.
A further data set addresses T1, Pancreatic CCK Receptor (Rattus norvegicus, UniProt P30551).
T1 construct: homogenzing a gram of fresh rat pancreas tissue; from tissue; host or cells: fresh rat pancreas membranes
T1 sequence (P30551 1-444): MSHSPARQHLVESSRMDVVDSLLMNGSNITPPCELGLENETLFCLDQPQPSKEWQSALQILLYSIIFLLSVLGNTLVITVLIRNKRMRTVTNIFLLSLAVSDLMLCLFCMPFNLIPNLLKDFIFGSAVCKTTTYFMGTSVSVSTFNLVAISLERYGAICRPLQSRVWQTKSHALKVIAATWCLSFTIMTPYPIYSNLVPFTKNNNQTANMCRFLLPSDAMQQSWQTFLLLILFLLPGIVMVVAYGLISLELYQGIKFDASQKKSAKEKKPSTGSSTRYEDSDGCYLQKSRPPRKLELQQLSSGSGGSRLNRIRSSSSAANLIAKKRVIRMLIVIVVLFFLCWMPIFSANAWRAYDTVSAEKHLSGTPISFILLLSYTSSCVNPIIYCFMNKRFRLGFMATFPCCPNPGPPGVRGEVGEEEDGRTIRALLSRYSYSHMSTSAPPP
The data set can be described thus: Pancreatic cholecystokinin receptor binding (125I-CCK-8, rat pancreas membranes). The conditions noted are these: for IC50: Pancreatic CCK Receptor Binding, rat pancreas, 125I-CCK-8, 37° C., 30 minutes; for effect on the 125I-CCK receptor binding assay: added protease inhibitors. As to the method: Pancreatic Cholecystokinin Receptor Binding Assay
Radiolabeled CCK-8 was purchased from New England Nuclear as ^125 I-CCK-8. Receptor binding was performed according to Innis and Snyder Proc. Natl. Acad. Sci., 77, 6917 (1980), with the minor modification of adding the additional protease inhibitors, phenylmethane sulfonyl fluoride (PMSF) and o-phenanthroline, which have no effect on the ^125 I-CCK receptor binding assay. All assays were performed in triplicate. Pancreatic receptor membranes were prepared by homogenzing a gram of fresh rat pancreas tissue in 30 ml TRIS-HCl (50 mM), pH 7.7 using a Brinkman polytron PT10 (Brinkman). The homogenate was washed twice and collected by centrifugation at 48,000× g at 4° C. for 10 minutes. The membranes were resuspended in assay buffer consisting of 5 mM dithiothieitol, 0.1 mM bacitiacin, 5 mM MgCl2 "H2 O, 0.2% heat denatured BSA, 1.2 mM PMSF and 0.5 mM O-phenanthroline at a concentration of 100 ml per gram of pancreas. […] The reaction mixtures were mixed briefly and placed in a 37° C. water bath with gentle shaking for 30 minutes. The reaction mixtures were then diluted with 4 ml of ice-cold TRIS buffer, pH 7.7, containing 1 mg/ml bovine serum albumin and immediately filtered in Watman G F/B filters. The filters were washed with 3×4 ml of the same buffer and the radioactivity associated with the filters was counted in a Beckman 5500 gamma counter. Broths were prepared by adding two volumes of acetone to original broth; supernatants were freeze dried after centrifugation at 1500 g for 10 minutes. The dried samples were then brought up in methanol/H2 O (1:1) and ready for assay.

Another data set relates to gram-positive bacteria. The conditions noted are these: cited from earlier work.

Turning to `CSCC[C@H](NC(=O)[C@@H](N)Cc1c[nH]c2ccccc12)C(=O)N[C@@H](CC(=O)O)C(=O)N[C@@H](Cc1ccccc1)C(N)=O` [CCK-4], the “affinity for CCK-A receptors” value in the data set on CCK-A receptors is on record as “lower affinity”. Also, the “affinity for CCK-B receptors” value with CCK-B receptors is “high affinity”. For the same compound, in the data set with stomach gastrin receptor, the “potency at stomach gastrin receptor” value is “minimum fully potent CCK sequence”.
Consider `CSCC[C@H](NC(=O)[C@H](Cc1ccc(O)cc1)NC(=O)[C@@H](N)CC(=O)O)C(=O)NCC(=O)N[C@@H](Cc1c[nH]c2ccccc12)C(=O)N[C@@H](CCSC)C(=O)N[C@@H](CC(=O)O)C(=O)N[C@@H](Cc1ccccc1)C(N)=O` [CCK-8d], for which the “affinity for CCK-A receptors” value with CCK-A receptors was “lower affinity”.
`CSCC[C@H](NC(=O)[C@H](Cc1ccc(OS(=O)(=O)O)cc1)NC(=O)[C@@H](N)CC(=O)O)C(=O)NCC(=O)N[C@@H](Cc1c[nH]c2ccccc12)C(=O)N[C@@H](CCSC)C(=O)N[C@@H](CC(=O)O)C(=O)N[C@@H](Cc1ccccc1)C(N)=O` [CCK-8s, H-Asp-Tyr(SO3 H)-Met-Gly-Trp-Met-Asp-Phe-NH2]: the half-life result in data set [1] was “less than 1 hour”. Moreover, the “affinity for CCK-A receptors” value in the data set on CCK-A receptors is recorded as “high affinity”. Further, the “affinity for CCK-B receptors” value with CCK-B receptors is recorded as “high affinity”.
For the compound `CC1=C\C=C\C(=O)Cc2nc(co2)C(=O)N2CCC=C2C(=O)O[C@H](C(C)C)[C@H](C)/C=C/C(=O)NC\C=C\1` [Compound III], the IC50 at Pancreatic CCK Receptor is more than 10 µM.
In the case of `CC1=C\C=C\[C@H](O)Cc2nc(co2)C(=O)N2CCC=C2C(=O)O[C@H](C(C)C)[C@H](C)/C=C/C(=O)NC\C=C\1` [Compound II], the IC50 on Pancreatic CCK Receptor was more than 10 µM.
Same read-out and setting: for `CC1=C\C=C\[C@@H](O)Cc2nc(co2)C(=O)N2CCC=C2C(=O)O[C@H](C(C)C)[C@H](C)/C=C/C(=O)NC\C=C\1` [Compound I] the value was more than 10 µM.
As for `CC1=C\[C@@H](O)CC(=O)Cc2nc(co2)C(=O)N2CCC=C2C(=O)O[C@H](C(C)C)[C@H](C)/C=C/C(=O)NC\C=C\1` [Virginiamycin M1], the IC50 on Pancreatic CCK Receptor is more than 100 µM. Also, in the data set on gram-positive bacteria, the “antibacterial specificity and action” value was “generally specific for gram-positive bacteria and prevent cell multiplication”.
As to `c1cnc2c(c1)ccc1cccnc12` [o-phenanthroline], the “effect on the 125I-CCK receptor binding assay” value at Pancreatic CCK Receptor is “no effect”.
With `CSCC[C@H](NC(=O)[C@H](Cc1c[nH]c2ccccc12)NC(=O)CCNC(=O)OC(C)(C)C)C(=O)N[C@@H](CC(=O)O)C(=O)N[C@@H](Cc1ccccc1)C(N)=O` [pentagastrin], the “affinity for CCK-B receptors” value in the data set with CCK-B receptors is reported as “high affinity”.
Take `O=S(=O)(F)Cc1ccccc1` [phenylmethane sulfonyl fluoride (PMSF), phenylmethane sulfonyl fluoride]: the “effect on the 125I-CCK receptor binding assay” value on Pancreatic CCK Receptor is given as “no effect”.
gastrin: in the data set on CCK-A receptors, the “affinity for CCK-A receptors” value is listed as “lower affinity”.

As a reminder, the IC50 is the concentration that inhibits the measured activity by half. The low end stands for greater potency, the high end for weaker potency.
